Assay results as given in US20130136691A1, “GASTRIN […] PEPTIDE COMPOUNDS” (priority 2008, published 2013).

Experiments:
[1] = target: T1, human GRP-R (Homo sapiens, UniProt P30550); assay: Competition assay with 125I-BBN for GRP-R in PC3 cells (IC50); type: binding; conditions: competition with 125I-BBN
T1 construct: host or cells: PC3 / PC-3 human prostate cancer cells (intact, plated)
Method: To identify potential lead compounds, an in vitro assay that identifies compounds with high affinity for GRP-R was used.
PC3 (human prostate cancer cell line) were obtained from the American Type Culture Collection and cultured in RPMI 1640 (ATCC) in tissue culture flasks (Corning). This growth medium was supplemented with 10% heat inactivated FBS (Hyclone, SH30070.03), 10 mM HEPES (GibcoBRL, 15630-080), and antibiotic/antimycotic (GibcoBRL, 15240-062) for a final concentration of penicillin-streptomycin (100 units/mL), and fungizone (0.25 μg/mL). […] Cells for experiments were plated at a concentration of 2.0×10^4/well either in 96-well white/clear bottom microtiter plates (Falcon Optilux-I) or 96 well black/clear collagen I cellware plates (Beckton Dickinson Biocoat). Plates were used for binding studies on day 1 or 2 post-plating.
RPMI 1640 (ATCC) supplemented with 20 mM HEPES, 0.1% BSA (w/v), 0.5 mM PMSF (AEBSF), Bacitracin (50 mg/500 ml), pH 7.4. ^125I-BBN (carrier free, 2200 Ci/mmole) was obtained from Perkin-Elmer.
A 96-well plate assay was used to determine the IC50 of various compounds of the invention to inhibit binding of ^125I-BBN to human GRP-R. The following general procedure was followed:
All compounds tested were dissolved in binding buffer and appropriate dilutions were also done in binding buffer. PC3 cells (human prostate cancer cell line) for assay were plated at a concentration of 2.0×10^4/well either in 96-well white/clear bottomed microtiter plates (Falcon Optilux-I) or 96 well black/clear collagen I cellware plates (Beckton Dickinson Biocoat). Plates were used for binding studies on day 1 or 2 post-plating. The plates were checked for confluency (>90% confluent) prior to assay. […] These studies were conducted with an assay volume of 75 μl per well. Triplicate wells were used for each data point. After the addition of the appropriate solutions, plates were incubated for 1 h at 4° C. to prevent internalization of the ligand-receptor complex. Incubation was ended by the addition of 200 μl of ice-cold incubation buffer. Plates were washed 5 times and blotted dry. Radioactivity was detected using either the LKB CompuGamma counter or a microplate scintillation counter.
All of the PC3 studies were performed as described in Example XLIII using ^125I-BBN. Selection of compounds for the assay was based on linker subtype.
PC3 cell lines were obtained from ATCC(CRL-1435) and cultured in RPMI 1640 (ATCC) supplemented with 2 mM L-glutamine, 1.5 g/L Sodium bicarbonate, 10 mM HEPES and 10% FBS. […]
All compounds tested were dissolved in binding buffer and appropriate dilutions were also done in binding buffer. […] Radioactivity was detected using either a LKB CompuGamma counter or a microplate scintillation counter.

[2] = test system: GRP receptor binding in T47D human breast cancer cells; assay: Effect of drug treatment on GRP receptor binding (177Lu-AMBA) and proliferation in T-47D cells; type: cell-based; conditions: T-47D, relative to untreated control
Source text: T-47D breast cancer cells (human metastatic mammary gland ductal adenocarcinoma isolated from pleural effusion, ER+, PR+) were obtained from the American Type Culture Collection.

[3] = test system: GRP receptor binding in PC-3 prostate cancer cells; assay: Effect of drug treatment on GRP receptor binding (177Lu-AMBA) and proliferation in PC-3 cells; conditions: PC-3
Method: (§1) RPMI 1640 supplemented with 20 mM HEPES, 0.1% BSA (w/v), 0.5 mM PMSF (AEBSF), bacitracin (50 mg/500 ml), pH 7.4.
(§2) Treatment: BT-474 cells were plated on Day 0 (see above); approximately 24-48 h after plating, treatment Days 1 and 2 (DT1, DT2), the medium was removed and replaced with fresh growth medium (control), or growth medium with the addition of lapatinib (0.1-1.0 μM). […] Incubations were stopped by the addition of 200 μL of ice-cold binding buffer. Plates were washed three more times with binding buffer, 140 μL of scintillation fluid was added to each well, the plates were sealed and analyzed on a Microp plate reader (Microbeta Trilux, Perkin-Elmer).
(§3) Treatment: BT-474 cells were plated on Day 0 and treated on Days 1 and 2 (DT1, DT2).

[4] = test system: GRP receptor binding in PC-3 prostate cancer cells; assay: Single plate assay: dasatinib effect on 177Lu-AMBA binding (Bmax) and proliferation (CCK-F) in PC-3 cells; type: cell-based; conditions: Homo sapiens, 100 nM Dasatinib, read-out: inhibition of growth (cell proliferation)
Method: The cells were plated on Day 0 (7.5k/well 96-well PE Scintiplate). […] To determine the cell numbers and the proliferation, 100 uL of 10% CCK-F solution in DPBS (Molecular technologies) was added to the same plate, incubated for 30 min at 37° C. and the relative fluorescence (RFU) measured at 535 nm. Base on the cell numbers and the ^177Lu-binding, the Bmax (fmoles bound/million cells) was calculated, and the results compared with the control.

[5] = test system: GRP receptor binding in ZR-75-1 human breast cancer cells; assay: 4-hydroxytamoxifen effect on 177Lu-AMBA binding and proliferation in ZR-75-1 cells (2 to 12 days); type: cell-based; conditions: for % Change in Proliferation / % change in 177Lu-AMBA Uptake: ZR-75-1 cells
Method: Method: ZR-75-1 breast cancer cell line (human ductal carcinoma with estrogen receptor) was obtained from the American Type Culture Collection (ATCC).
ZR-75-1 cells were plated on Day 0 (40k/well 96-well PE Scintiplate). […] To determine the cell numbers and the proliferation, 100 uL of 10% CCK-F solution in DPBS (Molecular technologies) was added to the same plate, incubated for 30 min at 37° C. and the relative fluorescence (RFU) measured at 535 nm. Based on the cell numbers and the ^177Lu-binding, the Bmax (fmoles bound/million cells) was calculated.
ZR-75-1 breast cancer cell lines were cultured as described above.
(§4) The ZR-75-1 cells were seeded at 15K per well onto two 96-well scintiplates on the same day as 2 days study.

[6] = test system: ZR-75-1 human breast cancer cells; assay: Glucose uptake (2-NBDG) in ZR-75-1 cells after 4-hydroxytamoxifen; type: cell-based; conditions: for % Change in 2-NBDG: ZR-75-1 cells
Method: For the glucose uptake study, a fluorescently labeled2-deoxyglucose derivative (2-NBDG) was used. […] The cell numbers were determined with CCK-F treatment as described above.
as §4

[7] = test system: GRP receptor binding in BT-474 human breast cancer cells; assay: Effect of drug treatment on GRP receptor binding (177Lu-AMBA) and proliferation in BT-474 cells; conditions: BT-474; relative to untreated control; drug 0.1-1.0 μM (4-OH Tamoxifen 0.001-0.1 μM)
Method: Cells for binding experiments were plated on Day 0 at 5.6×10^4 cells/cm^2 in 96-well white/clear bottom microtiter plates (Falcon Optilux-I), or 96 well black/clear collagen I cellware plates (Beckton Dickinson Biocoat).
as §1, §2, §3

[8] = breast cancer (30% have HER2/neu, 30% treated respond); cited from earlier work
[9] = test system: BT-474 tumor-bearing nude mice; conditions: 1 hr; + Tamoxifen/+ ES, day 14, n = 3; control 2.18 ± 0.63
Method: Female nude mice ([Ncr]-Foxn1) received hormone supplementation by administration of 17β-estradiol via 60 day time released pellets implanted s.c. (0.72 mg/60 Day release; 0.6 mg/kg; Innovative Research of America, Sarasota, Fla.). Four to seven days after beginning hormone treatment, the mice were xenografted with ten million BT-474 cells in Matrigel (1:1 with PBS) s.c. to the flank. The 1713 estradiol is required for tumor cell growth in this model.
Control mice received vehicle-only time release pellets (in addition to hormone support).

[10] = test system: human PC-3 nude mouse model; type: in vivo; conditions: i.v.
Method: 10-50 μCi of the HPLC purified compounds were administered to each mouse by i.v. tail vein injection, n=4 per group. At 1 h, 1 and 7 days post injection, the mice were terminated and the organs and tissues were harvested. Radioactivity was assayed in a gamma counter. The data was expressed as percentage of the total administered radioactivity (% ID) for the urine combined with the bladder, as well as for the blood pool; and percentage of the total administered radioactivity per gram (% ID/g) for all the other tested organs.

[11] = drug 0.1-1.0 μM (4-OH Tamoxifen 0.001-0.1 μM)
[12] = ZR-75-1, 1-100 nM, treatment on days 2 and 3

T1 sequence (P30550 whole entry): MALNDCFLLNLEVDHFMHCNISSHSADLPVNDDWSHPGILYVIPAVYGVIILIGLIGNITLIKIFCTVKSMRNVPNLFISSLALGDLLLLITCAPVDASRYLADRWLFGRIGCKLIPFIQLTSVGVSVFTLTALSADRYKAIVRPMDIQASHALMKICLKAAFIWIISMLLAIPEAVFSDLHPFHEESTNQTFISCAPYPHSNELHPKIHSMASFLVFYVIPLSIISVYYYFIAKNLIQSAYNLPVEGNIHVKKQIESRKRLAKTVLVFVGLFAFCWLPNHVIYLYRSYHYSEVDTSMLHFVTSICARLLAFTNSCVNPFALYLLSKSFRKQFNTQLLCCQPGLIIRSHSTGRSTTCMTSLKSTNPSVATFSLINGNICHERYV

N-[(3β,5β,12α)-3-[[[4,7,10-Tris(carboxymethyl)-1,4,7,10-tetraazacyclododec-1-yl]acetyl]amino]-glycyl-4-aminobenzoyl-L-glutaminyl-L-tryptophyl-L-alanyl-glycyl-L-histidyl-L-phenylalanyl-L-leucinamide [Compound L224]
competition for GRP-R in PC3 cells (in words) [1]: complete loss of binding

Cc1nc(Nc2ncc(C(=O)Nc3c(C)cccc3Cl)s2)cc(N2CCN(CCO)CC2)n1 [dasatinib]
increase in 177Lu-AMBA binding (GRP receptor specific signal per cell) ([2]; drug 0.1-1.0 μM (gefitinib 0.1-10 μM)): up to 500%
increase in 177Lu-AMBA binding (GRP receptor specific signal per cell) ([3]; relative to untreated control, drug 0.1-1.0 μM): up to 250%
inhibition at 0.1 µM [4]: ≤ 33%

N-[(3β,5β,12α)-3-[[[4,7,10-Tris(carboxymethyl)-1,4,7,10-tetraazacyclododec-1-yl]acetyl]amino]-glycyl-4-aminobenzoyl-L-glutaminyl-L-tryptophyl-L-alanyl-L-valyl-glycyl-L-histidyl-L-phenylalanyl-L-methioninamide [Compound L228]
competition for GRP-R in PC3 cells (in words) [1]: maintains GRP-R activity

N-[(3β,5β,12α)-3-[[[4,7,10-Tris(carboxymethyl)-1,4,7,10-tetraazacyclododec-1-yl]acetyl]amino]-glycyl-4-aminobenzoyl-L-leucyl-L-tryptophyl-L-alanyl-L-valinyl-glycyl-L-serinyl-L-phenylalanyl-L-methioninamide [Compound L225]
competition for GRP-R in PC3 cells (in words) [1]: reduces competition at the GRP-R

CC/C(=C(\c1ccc(O)cc1)c1ccc(OCCN(C)C)cc1)c1ccccc1 [4-OH Tamoxifen]
decrease in 177Lu-AMBA binding (GRP receptor specific signal per cell) [2, 11]: up to 35%
GRP receptor specific signal per cell (177Lu-AMBA binding) versus untreated controls, in words [3, 11]: no change
inhibition of proliferation, long-term treatment ([5]; ZR-75-1, 100 nM everyday, by 12 day): 28%
177Lu-AMBA uptake, long-term treatment, in words ([5]; ZR-75-1, 100 nM, 2-12 days): significant reduction
cell proliferation, in words [5, 12]: little change
% Change in Proliferation ([5]; 100 nM, 5 days of treatment): −11.3 (±8.3) %
% change in 177Lu-AMBA Uptake ([5]; 100 nM, 5 days of treatment): −77.4 (+1.6) %
% Change in Proliferation ([5]; 100 nM, 12 days of treatment): −28.0 (±14.1) %
% change in 177Lu-AMBA Uptake ([5]; 100 nM, 12 days of treatment): −72.3 (±14.6) %
% Change in Proliferation ([5]; 2 days of treatment): −7.2 (±3.8%
% change in 177Lu-AMBA Uptake ([5]; 2 days of treatment): −65.9 (±9.7) %
2-NBDG uptake, long-term treatment, in words ([6]; ZR-75-1, 100 nM, 2-12 days): smaller changes
decrease in glycolysis (2-NBDG uptake) [6, 12]: ~20%
% Change in 2-NBDG ([6]; 100 nM, 5 days of treatment): −47.5%
% Change in 2-NBDG ([6]; 100 nM, 12 days of treatment): 14.5%
decrease in 177Lu-AMBA binding (GRP receptor specific signal per cell) [7]: up to 73%

Herceptin
overall response [8]: 9%

CC/C(=C(\c1ccccc1)c1ccc(OCCN(C)C)cc1)c1ccccc1 [Tamoxifen]
177Lu-AMBA in Tumor (% ID/g) [9]: 0.70 ± 0.39 % ID/g

CC1(N(CC(=O)O)CC(=O)O)CN(CC(=O)O)[C@@H]2CCCC[C@H]2N(CC(=O)O)C1 [XX100]
Blood 7 d % ID (*72 h timepoint) ([10]; 177Lu complex, 72 h timepoint): 0.00 ± 0.00 % ID
Tumor 7 d % ID/g (*72 h timepoint) ([10]; 177Lu complex, 72 h timepoint): 0.01 ± 0.00 % ID/g
distribution of radioactivity (in words) ([10]; Lu-177 complexes, 1 h, 1 and 7 days): rapidly cleared from the body with little residual localization in any organs or tissue

DO3A-Gly-Abz-4-Gln-Trp-Ala-Val-Gly-His-Phe-Leu-NH2 [Compound L300]
competition for GRP-R in PC3 cells (in words) [1]: high activity at the GRP-R
